Test results published in patent EP4806898A1, “HETEROARYL DERIVATIVE COMPOUND AND USE THEREOF” (Voronoi Inc., priority 2023, dated 2025).

Legend:
UWB1.289 cells = assay: Cell proliferation inhibitory activity in BRCA1/2-mutant or HRD-positive cells (Cell Titer-Glo); type: cell-based; settings: UWB1289; UWB1.289 cells, 144 hours after compound treatment, Cell Titer-Glo, 1.5 nM to 10 µM; read-out: GI50 UWB1.289 BRCA1 mut
Method in brief: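 GI50 from CellTiter-Glo luminescence after 144 h compound exposure at 37 °C. Cells seeded at 1,000 per well in MEBM/RPMI1640 mix 16–24 h beforehand; […] from 10 µM down to 1.5 nM final (3-fold steps).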

recombinant USP1 protein = target: T1, recombinant USP1 protein (Homo sapiens, UniProt O94782, DEL125-138/DEL229-408/DEL608-737); assay: Binding affinity to recombinant USP1 protein by differential scanning fluorimetry; settings: compound 100 µM; 0.03 mg/mL USP1 (Δ1-66, Δ125-138, Δ229-408, Δ608-737); Tm with compound minus Tm with DMSO; read-out: ΔTm (°C)
T1 sequence (O94782 with tags, fused parts or gaps DEL125-138/DEL229-408/DEL608-737): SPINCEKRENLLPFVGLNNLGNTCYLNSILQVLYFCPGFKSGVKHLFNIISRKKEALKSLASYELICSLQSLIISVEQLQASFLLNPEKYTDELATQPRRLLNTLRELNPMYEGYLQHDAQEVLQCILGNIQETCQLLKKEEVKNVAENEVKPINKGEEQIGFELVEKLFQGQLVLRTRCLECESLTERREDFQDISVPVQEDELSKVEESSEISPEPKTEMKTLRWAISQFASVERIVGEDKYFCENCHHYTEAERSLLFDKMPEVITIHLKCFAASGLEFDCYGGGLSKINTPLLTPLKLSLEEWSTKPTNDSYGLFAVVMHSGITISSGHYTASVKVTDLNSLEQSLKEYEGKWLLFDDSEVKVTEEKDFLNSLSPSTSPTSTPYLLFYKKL
Method in brief: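 Thermal shift readout: ΔTm is the compound-well melting temperature less the DMSO-well value, measured by real-time PCR. Compounds tested at 100 µM final against 0.03 mg/mL truncated USP1 (Δ1-66, Δ125-138, Δ229-408, Δ608-737) in pH 8.0 Tris buffer containing 150 mM NaCl, 2% glycerol, 1 mM DTT.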

Compound | GI50 (UWB1.289 cells) | ΔTm at 100 µM (recombinant USP1 protein)
COc1ncnc(C2CC2)c1-c1ncc2cc(C(N)=O)n(Cc3ccc(-c4nc(C(F)(F)F)cn4C(C)C)cc3)c2n1 [Example 32, 2-(4-cyclopropyl-6-methoxypyrimidin-5-yl)-7-(4-(1-isopropyl-4-(trifluoromethyl)-1H-imidazol-2-yl)benzyl)-7H-pyrrolo[2,3-d]pyrimidine-6-carboxamide] | < 100 nM | > 5 °C
COc1ncnc(C2CC2)c1-c1ncc2cc(C(=O)NCCCN(C)C)n(Cc3ccc(-c4nc(C(F)(F)F)cn4C(C)C)cc3)c2n1 [Example 33] | < 100 nM | > 5 °C
COc1ncnc(C2CC2)c1-c1ncc2cc(C(=O)NCCC(F)(F)F)n(Cc3ccc(-c4nc(C(F)(F)F)cn4C(C)C)cc3)c2n1 [Example 34, 2-(4-cyclopropyl-6-methoxypyrimidin-5-yl)-7-(4-(1-isopropyl-4-(trifluoromethyl)-1H-imidazol-2-yl)benzyl)-N-(3,3,3-trifluoropropyl)-7H-pyrrolo[2,3-d]pyrimidine-6-carboxamide] | 100 to 500 nM | > 5 °C
COc1ncnc(C2CC2)c1-c1ncc2cc(C(=O)N3CC4(COC4)C3)n(Cc3ccc(-c4nc(C(F)(F)F)cn4C(C)C)cc3)c2n1 [Example 35, (2-(4-cyclopropyl-6-methoxypyrimid in-5-yl)-7-(4-(1-isopropyl-4-(trifluoromethyl)-1H-imidazol-2-yl)benzyl)-7H-pyrrolo[2,3-d]pyrimidin-6-yl) (2-oxa-6-azaspiro[3.3]heptan-6-yl)methanone] | < 100 nM | > 5 °C
COc1ncnc(C2CC2)c1-c1ncc2cc(C(=O)NC3CNC3)n(Cc3ccc(-c4nc(C(F)(F)F)cn4C(C)C)cc3)c2n1 [Example 36, N-(azetidin-3-yl)-2-(4-cyclopropyl-6-methoxypyrimidin-5-yl)-7-(4-(1-isopropyl-4-(trifluoromethyl)-1H-imidazol-2-yl)benzyl)-7H-pyrrolo[2,3-d]pyrimidine-6-carboxamide] | 100 to 500 nM | > 5 °C
CCCNC(=O)c1cc2cnc(-c3c(OC)ncnc3C3CC3)nc2n1Cc1ccc(-c2nc(C(F)(F)F)cn2C(C)C)cc1 [Example 37, 2-(4-cyclopropyl-6-methoxypyrimidin-5-yl)-7-(4-(1-isopropyl-4-(trifluoromethyl)-1H-imidazol-2-yl)benzyl)-N-propyl-7H-pyrrolo[2,3-d]pyrimidine-6-carboxamide] | < 100 nM | > 5 °C
COc1ncnc(C2CC2)c1-c1ncc2cc(C(=O)N(C)CCN(C)C)n(Cc3ccc(-c4nc(C(F)(F)F)cn4C(C)C)cc3)c2n1 [Example 38, 2-(4-cyclopropyl-6-methoxypyrimidin-5-yl)-N-(2-(dimethylamino)ethyl)-7-(4-(1-isopropyl-4-(trifluoromethyl)-1H-imidazol-2-yl)benzyl)-N-methyl-7H-pyrrolo [2,3-d]pyrimidine-6-carboxamide] | < 100 nM | > 5 °C
COc1ncnc(C2CC2)c1-c1ncc2cc(C(=O)N3CC[C@@H](N(C)C)C3)n(Cc3ccc(-c4nc(C(F)(F)F)cn4C(C)C)cc3)c2n1 [Example 39, (R)-(2-(4-cyclopropyl-6-methoxypyrimidin-5-yl)-7-(4-(1-isopropyl-4-(trifluoromethyl)-1H-imidazol-2-yl)benzyl)-7H-pyrrolo[2,3-d]pyrimidin-6-yl) (3-(dimethylamino)pyrrolidin-1-yl)methanone] | 100 to 500 nM | > 5 °C
COc1ncnc(C2CC2)c1-c1ncc2cc(C(=O)N3CC(F)(F)C3)n(Cc3ccc(-c4nc(C(F)(F)F)cn4C(C)C)cc3)c2n1 [Example 40, (2-(4-cyclopropyl-6-methoxypyrimid in-5-yl)-7-(4-(1-isopropyl-4-(trifluoromethyl)-1H-imidazol-2-yl)benzyl)-7H-pyrrolo[2,3-d]pyrimidin-6-yl) (3,3-difluoroazetid in-1-yl)methanone] | 100 to 500 nM | > 5 °C
COc1ncnc(C2CC2)c1-c1ncc2cc(C(=O)NC3CCNC3)n(Cc3ccc(-c4nc(C(F)(F)F)cn4C(C)C)cc3)c2n1 (stereo not shown) [Example 41, 2-(4-cyclopropyl-6-methoxypyrimidin-5-yl)-7-(4-(1-isopropyl-4-(trifluoromethyl)-1H-imidazol-2-yl)benzyl)-N-(pyrrolidin-3-yl)-7H-pyrrolo[2,3-d]pyrimidine-6-carboxamide] | < 100 nM | > 5 °C
CCN(CC)C(=O)c1cc2cnc(-c3c(OC)ncnc3C3CC3)nc2n1Cc1ccc(-c2nc(C(F)(F)F)cn2C(C)C)cc1 [Example 42, 2-(4-cyclopropyl-6-methoxypyrimidin-5-yl)-N,N-diethyl-7-(4-(1-isopropyl-4-(trifluoromethyl)-1H-imidazol-2-yl)benzyl)-7H-pyrrolo[2,3-d]pyrimidine-6-carboxamide] | 100 to 500 nM | > 5 °C
CNC(=O)c1cc2cnc(-c3c(OC)ncnc3C3CC3)nc2n1Cc1ccc(-c2nc(C(F)(F)F)cn2C)cc1 [Example 43, 2-(4-cyclopropyl-6-methoxypyrimidin-5-yl)-N-methyl-7-(4-(1-methyl-4-(trifluoromethyl)-1H-imidazol-2-yl)benzyl)-7H-pyrrolo[2,3-d]pyrimidine-6-carboxamide] | < 100 nM | > 5 °C
COC(=O)CNC(=O)c1cc2cnc(-c3c(OC)ncnc3C3CC3)nc2n1Cc1ccc(-c2nc(C(F)(F)F)cn2C(C)C)cc1 [Example 45, methyl (2-(4-cyclopropyl-6-methoxypyrimid in-5-yl)-7-(4-(1-isopropyl-4-(trifluoromethyl)-1H-imidazol-2-yl)benzyl)-7H-pyrrolo[2,3-d]pyrimidine-6-carbonyl)glyci nate] | < 100 nM | > 5 °C
COc1ncnc(C2CC2)c1-c1ncc2cc(C(=O)NCCN3CCCC3)n(Cc3ccc(-c4nc(C(F)(F)F)cn4C(C)C)cc3)c2n1 [Example 47, 2-(4-cyclopropyl-6-methoxypyrimidin-5-yl)-7-(4-(1-isopropyl-4-(trifluoromethyl)-1H-imidazol-2-yl)benzyl)-N-(2-(pyrrolidin-1-yl)ethyl)-7H-pyrrolo[2,3-d]pyrimidine-6-carboxamide] | < 100 nM | > 5 °C
COc1ncnc(C2CC2)c1-c1ncc2cc(C(=O)NC(C)C)n(Cc3ccc(-c4nc(C(F)(F)F)cn4C(C)C)cc3)c2n1 [Example 48, 2-(4-cyclopropyl-6-methoxypyrimidin-5-yl)-N-isopropyl-7-(4-(1-isopropyl-4-(trifluoromethyl)-1H-imidazol-2-yl)benzyl)-7H-pyrrolo[2,3-d]pyrimidine-6-carboxamide] | < 100 nM | > 5 °C
COc1ncnc(C2CC2)c1-c1ncc2cc(C(=O)NCc3ccccc3)n(Cc3ccc(-c4nc(C(F)(F)F)cn4C(C)C)cc3)c2n1 [Example 49, N-benzyl-2-(4-cyclopropyl-6-methoxypyrimidin-5-yl)-7-(4-(1-isopropyl-4-(trifluoromethyl)-1H-imidazol-2-yl)benzyl)-7H-pyrrolo[2,3-d]pyrimidine-6-carboxamide] | 100 to 500 nM | > 5 °C
COc1ncnc(C2CC2)c1-c1ncc2cc(C(=O)N3CC[C@H](N(C)C)C3)n(Cc3ccc(-c4nc(C(F)(F)F)cn4C(C)C)cc3)c2n1 [Example 50, (S)-(2-(4-cyclopropyl-6-methoxypyrimidin-5-yl)-7-(4-(1-isopropyl-4-(trifluoromethyl)-1H-imidazol-2-yl)benzyl)-7H-pyrrolo[2,3-d]pyrimidin-6-yl) (3-(dimethylamino)pyrrolidin-1-yl)methanone] | 100 to 500 nM | > 5 °C
COc1ncnc(C2CC2)c1-c1ncc2cc(C(=O)N3CCCC3)n(Cc3ccc(-c4nc(C(F)(F)F)cn4C(C)C)cc3)c2n1 [Example 51, (2-(4-cyclopropyl-6-methoxypyrimid in-5-yl)-7-(4-(1-isopropyl-4-(trifluoromethyl)-1H-imidazol-2-yl)benzyl)-7H-pyrrolo[2,3-d]pyrimidin-6-yl)(pyrrolidin-1-yl)methanone] | < 100 nM | > 5 °C
CCN(CC)CCNC(=O)c1cc2cnc(-c3c(OC)ncnc3C3CC3)nc2n1Cc1ccc(-c2nc(C(F)(F)F)cn2C(C)C)cc1 [Example 52, 2-(4-cyclopropyl-6-methoxypyrimidin-5-yl)-N-(2-(diethylamino)ethyl)-7-(4-(1-isopropyl-4-(trifluoromethyl)-1H-imidazol-2-yl)benzyl)-7H-pyrrolo[2,3-d]pyrimidine-6-carboxamide] | 100 to 500 nM | > 5 °C
COc1ncnc(C2CC2)c1-c1ncc2cc(C(=O)N3CC(N(C)C)C3)n(Cc3ccc(-c4nc(C(F)(F)F)cn4C(C)C)cc3)c2n1 [Example 53, (2-(4-cyclopropyl-6-methoxypyrimid in-5-yl)-7-(4-(1-isopropyl-4-(trifluoromethyl)-1H-imidazol-2-yl)benzyl)-7H-pyrrolo[2,3-d]pyrimidin-6-yl) (3-(dimethylamino)azetidin-1-yl)methanone] | < 100 nM | > 5 °C
